According to patent US9096534B2, “Pyridazinone compound and use thereof” (SUMITOMO CHEMICAL COMPANY, LIMITED, priority 2006, dated 2015):

Key:
[1] = system: Apera spica-venti; assay: Pre-emergence treatment test in dry field; assay type: in vivo; details: 500 g/ha; sprayed to soil surface after sowing; three weeks after treatment; 0 = no effect, 10 = complete death
Experimental: A plastic container (32 cm×22 cm×8 cm in height) was filled with soil sterilized by steam, onto which seeds of Apera spica-venti were sowed and covered with soil about 0.5 cm high. A prescribed dosage of a dilute liquid formulation comprising Compound I-a-1 was sprayed to the soil surface uniformly. The dilute liquid formulation was prepared by the method similar to that in Test example 1. The plants after treatment with the liquid formulation were grown in a greenhouse and three weeks after the treatment, the efficacy of the compound against Apera spica-venti was visually evaluated by rating in eleven levels from 0 to 10 similarly to Test example 1.
The other present compounds and Compound A as a comparative example were similarly tested.

[2] = system: Lolium multiflorum; assay: Post-emergence treatment test in dry field; assay type: in vivo; details: 500 g/ha; foliar spray at first to second leaf stage; 20 days after treatment; 0 = no effect, 10 = complete death
Experimental: A plastic cup with a diameter of 8 cm and a depth of 6.5 cm was filled with commercially available soil, onto which seeds of Lolium multiflorum were sowed, covered with soil about 0.5 cm high and then grown in a greenhouse. When the plants were grown in first to second leaf stage, a prescribed dosage of a dilute liquid formulation comprising Compound I-a-1 was sprayed to whole plants uniformly. The dilute liquid formulation was prepared by dissolving a prescribed amount of Compound I-a-1 in a dimethylformamide solution (2%) of Tween 20 (polyoxyethylene sorbitan fatty acid ester, from MP Biomedicals, Inc.) and then diluting with deionized water. The plants after treatment with the liquid formulation were grown in a greenhouse and 20 days after the treatment, the efficacy of the compound against Lolium multiflorum was visually evaluated by rating in eleven levels from 0 to 10 (assigned as 0 for no effect and 10 for complete death while values falling in between these values were rated from 1 to 9 levels accordingly).
The other present compounds and Compound A described in J. Heterocycl. Chem., vol. 42, pp. 427-435 (2005) as a comparative example were similarly tested.

Cc1ccccc1-c1c(O)cnn(C)c1=O [Compound A]
efficacy against Apera spica-venti, visually evaluated by rating in eleven levels from 0 to 10 [1]: 1
efficacy against Lolium multiflorum, visually evaluated by rating in eleven levels from 0 to 10 [2]: 1
